{
  "source": "patent EP4652992A1",
  "about": "“OPHTHALMIC COMPOSITION FOR PREVENTING AND TREATING CONJUNCTIVA EPITHELIUM DAMAGE AND ASSOCIATED DISCOMFORT CAUSED BY HYPOTONIZING FORMULATIONS” (FB Vision S.p.A., priority 2024, dated 2025)",
  "key": {"HCE cells [1]": {"tested_on": "HCE cells", "details": "48 hours of incubation", "procedure": "The distribution of cell cycle phases is shown using PI dyeing and analyzed using flow cytometry. The bar charts show the percentage of cells in each phase and represent the average ± SE of the results of three independent experiments; one-way ANOVA followed by Bonferroni's t-test; *p<0.05 with respect to vCTR.\nThe cells were treated for 24 hours and 48 hours, and cytofluorimetric analyses of the cell cycle phase were performed for the distribution (Figure 4) and the apoptosis (Figure 5)."}, "HCE cells [2]": {"tested_on": "HCE cells", "details": "24 hours, vs. vCTR"}, "HCE cells [3]": {"tested_on": "HCE cells", "details": "3 - 24 hours, any analyzed moment, JC-1 dye"}, "[4]": {"tested_on": "human conjunctival epithelial cells (HCE)", "assay": "Cell growth and vitality of HCE cells (trypan blue exclusion test and MTT assay)", "format": "cell-based", "from_the_text": "In vitro tests on human conjunctival epithelial cells (HCE) for the experimental verification of the cytoprotective and antioxidant activity of beta caryophyllene (BCP) on the oxidative damage induced by anti-glaucoma medicines (AD). Characterization of the cytoprotective effects of beta-caryophyllene (BCP) on the human conjunctival epithelial cells exposed to oxidative and mitochondrial stress. This stress mimics the irritant and inflammatory action of hypotonizing ophthalmic medicines on the external structures of the human eye.\nThe HCE cells were exposed for 24 and 48 hours with increasing concentrations of BRIM (from 0.25 up to 4 mg/mL), DZL (from 0.086 up to 0.43%) and TFP (from 0.9 up to 30 µg/mL), alone and in combination with various concentrations of BCP (from 1.25 up to 40 µM), and the cell growth and vitality were evaluated respectively using the trypan blue exclusion test and the MTT assay. […] The IC50 ([…]) values for BRIM and DZL on their own are given respectively in the accompanying Figures 1 and 2. The in vitro interactions between BCP and BRIM or DZL, as illustrated in Figures 3A and B, were determined by the ÿE model of non-parametric response surface analysis. […] In particular, the most advantageous combinations were 10 µM BCP with 2 mg/ml BRIM and 2.5 µM BCP with 0.25% DZL. Of the combinations selected, only the combination 10 µM BCP and 2 mg/mL BRIM, which reflects the commercial formulation of the eye drops for treatment, was studied further. All the statistical comparisons were performed with respect to vCTR (vehicle control)."}, "HCE cells [5]": {"tested_on": "HCE cells", "assay": "Apoptosis, cytofluorimetric analysis", "format": "cell-based, human", "details": "BRIM/BCP with respect to BRIM", "procedure": "Figure 5 is a bar graph showing the percentage values of apoptotic cells (early and late) and necrotic cells in experimental groups exposed for 48 hours to BRIM and BCP."}},
  "note": "Where a name gives a salt, the structure may show the parent alone.",
  "data": [
    {"smiles": "Brc1c(NC2=NCCN2)ccc2nccnc12", "note": "[BRIM, Brimonidine tartrate]", "values": [
      {"measurement": "S phase", "setting": "HCE cells [1]", "value": "significant decreases"},
      {"measurement": "percentage of cells in the G2/M phase", "setting": "HCE cells [1]; vehicle control 12%, 2 mg/mL BRIM, 10 µM BCP", "value": 33.73, "unit": "%"},
      {"measurement": "increase in ROS production", "setting": "HCE cells [2]", "value": "approximately 30%"},
      {"measurement": "mitochondrial membrane potential (ÿÿm)", "setting": "HCE cells [3]", "value": "marked mitochondrial depolarization"}
    ]},
    {"smiles": "C=C1CC/C=C(\\C)CC[C@@H]2[C@@H]1CC2(C)C", "note": "[BCP, (1R,4E,9S)-4,11,11-Trimethyl-8-methylidenebicyclo[7.2.0]undec-4-ene]", "values": [
      {"measurement": "protective effects of BCP in the cells treated with BRIM and DZL", "setting": "[4]; HCE cells, 48 hours of incubation, BCP from 1.25 up to 40 µM", "value": "Significant protective effects"},
      {"measurement": "most advantageous combination, BCP concentration with BRIM", "setting": "[4]; with 2 mg/ml BRIM, non-parametric response surface analysis", "value": 10, "unit": "µM"},
      {"measurement": "most advantageous combination, BCP concentration with DZL", "setting": "[4]; with 0.25% DZL, non-parametric response surface analysis", "value": 2.5, "unit": "µM"},
      {"measurement": "early apoptosis reduced (apoptosis induced by BRIM)", "setting": "HCE cells [5]; 24 and 48 hours", "value": "approximately 35%"},
      {"measurement": "late apoptosis decrease (apoptosis induced by BRIM)", "setting": "HCE cells [5]; 48 hours", "value": "approximately 15%"}
    ]},
    {"smiles": "CC(C)OC(=O)CCC/C=C\\C[C@@H]1[C@@H](/C=C/C(F)(F)COc2ccccc2)[C@H](O)C[C@@H]1O", "note": "[TFP, tafluprost]", "values": [
      {"measurement": "cytotoxic effects", "setting": "[4]; HCE cells, 24 and 48 hours, up to concentrations of 30 µg/mL", "value": "no cytotoxic effects"}
    ]}
  ]
}
